Assay results as given in US4775692A, “2,5,6,7-tetranor-4,8-inter-m-phenylene PGI2 derivatives” (Toray Industries, Inc., priority 1986, dated 1988).
In brackets after ≈: the same amount, converted by molar mass.

Key:
corpus of stomach = assay: Gastric cytoprotection effect (lesion length / ulcer index after oral 0.2N NaOH); assay type: in vivo; details: 1 h, 30 min before oral 0.2N NaOH, lesion measured one hour later, read-out: Gastric cytoprotection effect ED50 (dose reducing the sore to 50% of control)
Source text: Gastric cytoprotection effect
Gastric cytoprotection effect was studied according to the method by A. Robert (Gastroenterology, 77(3), 443, (1979)). Thirty min. after oral administration of the compound according to the invention, 0.2N NaOH was orally applied to the animals.
One hour later, the animals were killed under anesthesia by chloroform. The stomach was removed and fixed in a solution of 5% formalin. After fixation, the stomach was cut along the greater curvature. A total length of the lesion appearing on the corpus of stomach was then measured and served as an ulcer index.
The dose of the compound which may reduce the sore to 50% of that of the control was designated as ED50.
The gastric cytoprotection effects of the compounds according to the invention, which is thus represented by ED50, are summarized in Table 1.

[1] = tested on: blood pressure of the carotid; assay: Hypotensive effect (carotid blood pressure, anesthetized rat); assay type: in vivo; details: chloralose-anesthetized Wistar male rat, injected via catheter connected to femoral artery; read-out: Hypotensive effect ED25 (dose reducing blood pressure by 25 mmHg)
Method: A catheter was inserted to a carotid of the Wistar male rat under chloralose anesthesia. Another end of the catheter was connected to a polygraph with a pressure-transducer to detect a blood pressure of the carotid. The compound was injected via catheter connected to a femoral artery. The dose of the compound which may reduce the blood pressure in an amount of 25 mmHg was designated as ED25.

platelet aggregation = assay: Inhibiting effect of platelet aggregation (ADP-induced, human platelet-rich plasma); assay type: cell-based; details: human PRP, compound added one minute before ADP
Method: Inhibiting effect of platelet aggregation
The blood taken from a human median cubital vein was centrifuged at 800 rpm for 10 min. and a supernatant thereof was used as a platelet-rich plasma (PRP). An aliquot of PRP thus obtained was put into a small tube, to which […] (ADP) was added to induce platelet aggregation. The extent of aggregation was determined by detecting a change in turbidity of the aliquot by an apparatus for measuring platelet aggregation (Rika-Denki, Tokyo). The compound was added one minute before the addition of ADP. The concentration of the compound which may reduce the platelet aggregation, 50% of the control was designated as IC50.

gastric acid secretion = assay: Inhibiting effect of gastric acid secretion, perfused stomach, pentagastrin-stimulated (Ghosh & Schild); assay type: in vivo, male SD rat; details: urethane-anesthetized SD rat, pentagastrin 0.05 μg/kg/min, injected through femoral vein; ratio of area index to that of PGE2
Method: Inhibiting effect of gastric acid secretion
A male SD rat was incised in the abdomen under anesthesia by urethane and the lumen of a stomach was perfused with a physiolosical saline solution through a double-cannula inserted into a lumen of the stomach. A pH of a draining gastric acid was monitored using a pH-meter (M. Ghosh, H. Schild, Br. J. Pharmacol. 13, 54 (1958)). The secretion of gastric acid was stimulated by a continuous infusion of the pentagastrin at a rate of 0.05 μg/kg/min. When the pH of gastric acid became stable value of about 4, the compound was injected through a femoral vein. As an index of the inhibiting effect of gastric acid secretion by the compound was calculated from the area surrounded by the curve drawn by the time course of the pH of gastric acid, from the point increase by the injection of the compound and to the point it came back to baseline. The index thus obtained was compared to that of PGE2 and a ratio therebetween was shown in Table 3, as a relative effect of the compound.

Row | SMILES | IC50 (platelet aggregation) | ED50 (corpus of stomach) | ED (25 mmHg) [1] | Inhibiting effect of gastric acid secretion, Relative effect (PGE2 = 1) (gastric acid secretion)
1 | CCCCCCC(C)(C)[C@H](O)/C=C/[C@@H]1[C@H]2c3cccc(OCC(=O)O)c3O[C@H]2C[C@H]1O (relative stereo) [Compound 188, 16,16-Dimethyl-20a,20b-dihomo-2,5,6,7-tetranor-4-oxa-4,8-inter-m-phenylene PGI2] | 6.9 ng/mL (≈ 0.016 µM) | 2.8 µg/kg | 1.5 µg/kg | 23
2 | CCCCCCCC(C)(C)[C@H](O)/C=C/[C@@H]1[C@H]2c3cccc(OCC(=O)O)c3O[C@H]2C[C@H]1O (relative stereo) [Compound 192, 16,16-Dimethyl-20a,20b,20c-trihomo-2,5,6,7-tetranor-4-oxa-4,8-inter-m-phenylene PGI2] | 8 ng/mL (≈ 0.0179 µM) | 3.9 µg/kg | 0.59 µg/kg | 0.7
3 | CCCC(C)(C)C[C@H](O)/C=C/[C@@H]1[C@H]2c3cccc(OCC(=O)O)c3O[C@H]2C[C@H]1O (relative stereo) [Compound 200, 17,17-Dimethyl-2,5,6,7-tetranor-4-oxa-4,8-inter-m-phenylene PGI2] | 0.37 ng/mL (≈ 0.000915 µM) | 3.6 µg/kg | 0.16 µg/kg | 3.0
4 | CCCCCC(C)(O)/C=C/[C@@H]1[C@H]2c3cccc(OCC(=O)O)c3O[C@H]2C[C@H]1O (relative stereo) [Compound 210, 15-Methyl-2,5,6,7-tetranor-4-oxa-4,8-inter-m-phenylene PGI2] | 30 ng/mL (≈ 0.0768 µM) | 109 µg/kg | 0.89 µg/kg | 13
5 | O=C(O)COc1cccc2c1O[C@H]1C[C@@H](O)[C@H](/C=C/[C@@H](O)CC3CCCC3)[C@@H]21 (relative stereo) [Compound 238, 16-cyclopentyl-2,5,6,7,17,18,19,20-octanor-4-oxa-4,8-inter-m-phenylene PGI2] | 0.24 ng/mL (≈ 0.000618 µM) | 4.9 µg/kg | 0.14 µg/kg | 11

Second part, led by results:

Row | IC50 (platelet aggregation) | SMILES | ED50 (corpus of stomach) | ED (25 mmHg) [1] | Inhibiting effect of gastric acid secretion, Relative effect (PGE2 = 1) (gastric acid secretion)
6 | 2.3 ng/mL (≈ 0.0058 µM) | Cc1ccccc1[C@H](O)/C=C/[C@@H]1[C@H]2c3cccc(OCC(=O)O)c3O[C@H]2C[C@H]1O (relative stereo) [Compound 266, 15-(o-methylphenyl)-2,5,6,7,16,17,18,19,20-nonanor-4-oxa-4,8-inter-m-phenylene PGI2] | 31.2 µg/kg | 0.32 µg/kg | 7.2
7 | 1.6 ng/mL (≈ 0.00404 µM) | Cc1ccc([C@H](O)/C=C/[C@@H]2[C@H]3c4cccc(OCC(=O)O)c4O[C@H]3C[C@H]2O)cc1 (relative stereo) [Compound 270, 15-(p-methylphenyl)-2,5,6,7,16,17,18,19,20-nonanor-4-oxa-4,8-inter-m-phenylene PGI2] | 25.5 µg/kg | 0.12 µg/kg | 16
8 | 90 ng/mL (≈ 0.221 µM) | CCOCC(C)(C)[C@H](O)/C=C/[C@@H]1[C@H]2c3cccc(OCC(=O)O)c3O[C@H]2C[C@H]1O (relative stereo) [Compound 305, 16,16-Dimethyl-2,5,6,7-tetranor-4,18-dioxa-4,8-inter-m-phenylene PGI2] | 13.1 µg/kg | 0.55 µg/kg | 99
